Reference: the supplement of paper PMC10307832

Columns and labels:
Assay in all cases: relative viability (nuclei count vs DMSO), 5 days (fraction); higher = more cells survive
201T = test system: 201T
Method in brief: (§1)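 Relative viability is defined as nuclei in treated wells over nuclei in vehicle wells. Duplicate plates were run and medians reported. Lung cancer cell lines in 1536-well plates were dosed by pin tool one day after seeding, with one drug or with a fixed anchor-drug dose plus five library-drug doses (not always all listed) in √10 steps, and nuclei were counted after 5 days.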

BEN = test system: BEN
Method in brief: as §1

COR-L 105 = test system: COR-L 105
Method in brief: as §1

EKVX = test system: EKVX
Method in brief: as §1

EPLC-272H = test system: EPLC-272H
Method in brief: as §1

H3255 = test system: H3255
Method in brief: as §1

HCC-44 = test system: HCC-44
Method in brief: as §1

HCC-827 = test system: HCC-827
Method in brief: as §1

HOP-62 = test system: HOP-62
Method in brief: as §1

LCLC-97TM1 = test system: LCLC-97TM1
Method in brief: as §1

LOU-NH91 = test system: LOU-NH91
Method in brief: as §1

LU99A = test system: LU99A
Method in brief: as §1

For `NC(=O)Nc1cc(-c2cccc(F)c2)sc1C(=O)N[C@H]1CCCNC1` [AZD7762] + COc1cccc2cc(-c3nc([C@H]4CC[C@H](C(=O)O)CC4)n4ncnc(N)c34)[nH]c12 [OSI-027] (partner 0.5 µM), the relative viability (201T; first compound 0.01 µM) was 0.795, the relative viability (201T; first compound 0.03162 µM) was 0.779 and the relative viability (201T; first compound 0.1 µM) was 0.703. For the same compound, the relative viability (201T; first compound 0.3162 µM) was 0.423, the relative viability (201T; first compound 1 µM) was 0.254 and the relative viability (BEN; first compound 0.01 µM) was 0.284. It also gave a relative viability (BEN; first compound 0.03162 µM) of 0.297, a relative viability (BEN; first compound 0.1 µM) of 0.305 and a relative viability (BEN; first compound 0.3162 µM) of 0.287. The relative viability (BEN; first compound 1 µM) was 0.246, the relative viability (COR-L 105; first compound 0.01 µM) was 0.636 and the relative viability (COR-L 105; first compound 0.03162 µM) was 0.821. The relative viability (COR-L 105; first compound 0.1 µM) was 0.543, the relative viability (COR-L 105; first compound 0.3162 µM) was 0.472 and the relative viability (COR-L 105; first compound 1 µM) was 0.406. It also gave a relative viability (EKVX; first compound 0.01 µM) of 0.726, a relative viability (EKVX; first compound 0.03162 µM) of 0.75 and a relative viability (EKVX; first compound 0.1 µM) of 0.653. For the same compound, the relative viability (EKVX; first compound 0.3162 µM) was 0.604, the relative viability (EKVX; first compound 1 µM) was 0.628 and the relative viability (EPLC-272H; first compound 0.01 µM) was 0.299. It also gave a relative viability (EPLC-272H; first compound 0.03162 µM) of 0.332, a relative viability (EPLC-272H; first compound 0.1 µM) of 0.271 and a relative viability (EPLC-272H; first compound 0.3162 µM) of 0.27. It also gave a relative viability (EPLC-272H; first compound 1 µM) of 0.115, a relative viability (H3255; first compound 0.01 µM) of 0.572 and a relative viability (H3255; first compound 0.03162 µM) of 0.506. For the same compound, the relative viability (H3255; first compound 0.1 µM) was 0.534, the relative viability (H3255; first compound 0.3162 µM) was 0.629 and the relative viability (H3255; first compound 1 µM) was 0.607. The relative viability (HCC-44; first compound 0.01 µM) was 0.718, the relative viability (HCC-44; first compound 0.03162 µM) was 0.579 and the relative viability (HCC-44; first compound 0.1 µM) was 0.712. The relative viability (HCC-44; first compound 0.3162 µM) was 0.65, the relative viability (HCC-44; first compound 1 µM) was 0.491 and the relative viability (HCC-827; first compound 0.01 µM) was 0.787. The relative viability (HCC-827; first compound 0.03162 µM) was 0.802, the relative viability (HCC-827; first compound 0.1 µM) was 0.863 and the relative viability (HCC-827; first compound 0.3162 µM) was 0.875. The relative viability (HCC-827; first compound 1 µM) was 0.537, the relative viability (HOP-62; first compound 0.01 µM) was 0.759 and the relative viability (HOP-62; first compound 0.03162 µM) was 0.89. It also gave a relative viability (HOP-62; first compound 0.1 µM) of 0.743, a relative viability (HOP-62; first compound 0.3162 µM) of 0.71 and a relative viability (HOP-62; first compound 1 µM) of 0.552. The relative viability (LCLC-97TM1; first compound 0.01 µM) was 0.582, the relative viability (LCLC-97TM1; first compound 0.03162 µM) was 0.577 and the relative viability (LCLC-97TM1; first compound 0.1 µM) was 0.511. The relative viability (LCLC-97TM1; first compound 0.3162 µM) was 0.617, the relative viability (LCLC-97TM1; first compound 1 µM) was 0.44 and the relative viability (LOU-NH91; first compound 0.01 µM) was 0.735. It also gave a relative viability (LOU-NH91; first compound 0.03162 µM) of 0.749, a relative viability (LOU-NH91; first compound 0.1 µM) of 0.692 and a relative viability (LOU-NH91; first compound 0.3162 µM) of 0.638. The relative viability (LOU-NH91; first compound 1 µM) was 0.554, the relative viability (LU99A; first compound 0.01 µM) was 0.323 and the relative viability (LU99A; first compound 0.03162 µM) was 0.365.
